The values that follow come from US7026317B2, “Pyrazolotriazines as CRF antagonists” (Bristol-Myers Squibb Pharma Company, priority 1999, dated 2006).

The melting point is the temperature, or range, at which the solid turns liquid.

Molecules are shown by their SMILES.

Take `CCc1nn2c(-c3ccc(Cl)cc3Cl)nc(C)nc2c1C(CC)CC` [compound 1, 4-(2,4-dichlorophenyl)-8-(3-pentyl)-7-ethyl-2-methyl-pyrazolo[1,5-a]-1,3,5-triazine]: the melting point lay in the range of 91 to 93 °C.
Under `CCc1nn2c(-c3ccc(Cl)cc3Cl)nc(C)nc2c1N(CC)CC` [compound 3, 4-(2,4-dichlorophenyl)-8-diethylamino-7-ethyl-2-methyl-pyrazolo[1,5-a]-1,3,5-triazine] stands 98 to 99 °C.
